Experimental data taken from paper PMC9272661 (Antiviral Research, 2022).
“Also recorded” adds a separate entry of the source. Where two headings read alike, the source gives them in different places.

How the values were obtained:
[1] = tested on: SARS-CoV-2; experiment: microbe, parasite or virus in culture; format: cell-based, SARS-CoV-2 (strain 2019-nCoV/USA_WA1/2020)
[2] = biological target: SARS-CoV 3CLpro (Severe acute respiratory syndrome coronavirus, UniProt P0C6X7); format: biochemical
[3] = tested on: SARS-CoV; conditions: cited from earlier work
[4] = Cytotoxicity; format: cell-based
[5] = tested on: 3CLpro; conditions: read-out: reported IC50; reported value, no reference given; cited from earlier work
[6] = Severe acute respiratory syndrome coronavirus 2, 48 h

## CC(C)C[C@H](NC(=O)c1cc(Cl)ccc1O)C(=O)Nc1ccc([N+](=O)[O-])cc1Cl [JMX0671]
[1]
  EC50: 1560 nM

## O=C(NC(Cc1ccccc1)C(=O)Nc1ccc([N+](=O)[O-])cc1Cl)c1cc(Cl)ccc1O (stereo not drawn) [JMX0285]
[1]
  EC50: 3030 nM

## CC(C)[C@H](NC(=O)c1cc(Cl)ccc1O)C(=O)Nc1ccc(F)c(F)c1 [JMX0681]
[1]
  EC50: 9750 nM

## CC(C)[C@H](NC(=O)c1cc(Cl)ccc1O)C(=O)Nc1ccc(C(F)(F)F)cc1Cl [JMX0672]
[1]
  EC50: 1920 nM

## CCC(C)[C@H](NC(=O)c1cc(Cl)ccc1O)C(=O)Nc1ccc([N+](=O)[O-])cc1Cl (stereo partly drawn) [JMX0673]
[1]
  EC50: 1740 nM

## O=C(Nc1ccc([N+](=O)[O-])cc1Cl)c1cc(Cl)ccc1O [niclosamide]
[2]
  Inhibitory activity against SARS-CoV 3CLpro: does not inhibit; also recorded: no obvious inhibitory activity
[3]
  Concentration suppressing the cytopathic effect (CPE) of SARS-CoV: 1 µM
[3]; read-out: EC50 of SARS-CoV replication
  EC50: < 100 nM

## O=C(Nc1ccc(F)c(F)c1)c1cc(Cl)ccc1O [JMX0321]
[1]
  EC50: 1190 nM

## O=C(Nc1cc(F)cc(C(F)(F)F)c1)c1cc(Cl)ccc1O [JMX0312]
[1]
  EC50: 1130 nM

## O=C(Nc1ccc(C(F)(F)F)cc1Cl)c1cccc([N+](=O)[O-])c1O [JMX0310, N-(2-Chloro-4-(trifluoromethyl)phenyl)-2-hydroxy-3-nitrobenzamide]
[1]; [6]
  EC50: 2410 nM
[4]
  CC50 at 48 h: 10100 nM

## CC(C)[C@H](NC(=O)c1cc(Cl)ccc1O)C(=O)Nc1ccc([N+](=O)[O-])cc1Cl [JMX0281]
[1]
  EC50: 2080 nM

## CC(C)[C@H](NC(=O)c1cc(Cl)ccc1O)C(=O)Nc1cc(C(F)(F)F)cc(C(F)(F)F)c1 [JMX0679]
[1]
  EC50: 2510 nM

## CC(C)[C@H](NC(=O)c1cc(Cl)ccc1O)C(=O)Nc1cc(F)cc(C(F)(F)F)c1 [JMX0680]
[1]
  EC50: 4570 nM

## CC(C)(C)OC(=O)NCCOc1ccc(Cl)cc1C(=O)NCC(=O)Nc1ccc([N+](=O)[O-])cc1Cl [JMX0301, Tert-Butyl (2-(4-chloro-2-((2-((2-chloro-4-nitrophenyl)amino)-2-oxoethyl)carbamoyl)phenoxy)ethyl)carbamate]
[1]; Table 2, cell-based antiviral assay, SARS-CoV-2 viral replication
  SARS-CoV-2 3CLpro EC50: No Dose response

## O=C(Nc1cc(C(F)(F)F)cc(C(F)(F)F)c1)c1cccc([N+](=O)[O-])c1O [JMX0330, N-(3,5-Bis(trifluoromethyl)phenyl)-2-hydroxy-3-nitrobenzamide]
[1]; [6]
  EC50: 498 nM
[1]; listed as JMX0320
  EC50: sub-micromolar
[4]
  CC50 at 48 h: 10200 nM

## CC(C)(C)NC(=O)[C@@H](c1cccnc1)N(C(=O)c1ccco1)c1ccc(C(C)(C)C)cc1 [ML-188]
[5]
  IC50: ~2000 nM

## C[C@H](NC(=O)c1cc(Cl)ccc1O)C(=O)Nc1ccc([N+](=O)[O-])cc1Cl [JMX0674]
[1]
  EC50: 9750 nM

## Cl.NCCOc1ccc(Cl)cc1C(=O)NCC(=O)Nc1ccc([N+](=O)[O-])cc1Cl [JMX0286, 2-(2-Aminoethoxy)-5-chloro-N-(2-((2-chloro-4-nitrophenyl)amino)-2-oxoethyl)benzamide hydrochloride]
[1]; [6]
  EC50: 2250 nM
[4]
  CC50 at 48 h: 3780 nM

## CC(C)(C)NC(=O)N[C@H](C(=O)N1C[C@H]2[C@@H]([C@H]1C(=O)NC(CC1CCC1)C(=O)C(N)=O)C2(C)C)C(C)(C)C (stereo partly drawn) [Boceprevir, boceprevir, reference compound]
[1]; Severe acute respiratory syndrome coronavirus 2, read-out: SARS-CoV-2 3CLpro EC50, Table 2, cell-based antiviral assay, SARS-CoV-2 viral replication
  EC50: 15600 nM

## O=C(Nc1cc(F)cc(C(F)(F)F)c1)c1cccc([N+](=O)[O-])c1O [JMX0317, N-(3-Fluoro-5-(trifluoromethyl)phenyl)-2-hydroxy-3-nitrobenzamide]
[1]; [6]
  EC50: 4030 nM
[4]
  CC50 at 48 h: 11700 nM

## O=C(Nc1ccc([N+](=O)[O-])cc1Cl)c1cccc([N+](=O)[O-])c1O [JMX0207]
[1]
  EC50: 1220 nM
